Data on 89 compounds can be found in a melting point compilation (Tetko et al.; mined from patent text by program, amines drawn as free bases though some values may be those of a salt).

The term melting point denotes the temperature of the solid-liquid transition.

Turning to `Cc1ccc(-c2ccc3c(c2)C=C(C(=O)Nc2ccc(CN4CCCCC4)cc2)CCS3)cc1`, the melting point fell in the range of 203 to 204 °C. Compound `Oc1ccc2c(c1)COc1c-2cc2ccc(O)cc2c1-c1cccc(F)c1` gave a melting point of 225 to 227 °C. As for `C#CCn1cc(F)cnc1=O`, the figure is 107 to 108 °C; as for `CNC(=O)C(Cc1ccc(OCCc2nc(-c3ccccc3)oc2C)cc1)C(=O)OC` (centres undefined), 151 to 152 °C. As for `O=C1CN(C(=O)Cl)C(c2ccccc2)c2cc(Cl)ccc2N1` (centres undefined), the figure is 181 to 184 °C; as for `OCc1ccc(-c2nn(Cc3ccccc3)c3ncccc23)o1`, 104 °C; as for `O=C(O)Cc1cc(Cl)c2c(c1)CCC(C(F)(F)F)N2` (centres undefined), 110 to 112 °C. The same measure for `CCOC(=O)c1ccc(-c2ccc(C#N)cc2)cc1`: 114 to 115 °C; for `CS(=O)(=O)c1ccc(-c2cnn(-c3cccc(Cl)c3)c(=O)c2Cc2ccc(F)cc2)cc1`: 183 to 185 °C; for `O=C(O)Cc1c(C(=O)c2ccc(Cl)cc2)[nH]c2cc(C(F)(F)F)ccc12`: 155 to 160 °C. With `CN(C)c1ccc(S(N)(=O)=O)cn1`, the melting point lay within 133 to 138 °C. `CCOC(=O)C1OC1C(=O)NC(CC(C)C)C(=O)NCCC(C)CO` (centres undefined) showed a melting point of 92 to 95 °C. Consider `CC1CCN(C2C3=CC(OC3=O)C3C(CC4(C)OC4C2O)OC(=O)C3C)CC1` (centres undefined), for which the melting point amounted to 210 °C. The same measure for `c1csc(-c2ccc(-c3cccs3)nc2)c1`: 150 °C; for `O=C1OCCC1C(=O)c1ccccc1[N+](=O)[O-]` (centres undefined): 75 to 76 °C. As for `CCCCCCCCCCc1ccc2c(c1)-n1c(C)nnc1C(C)N=C2c1ccccc1` (centres undefined), the figure is 111 to 112 °C; as for `CC(CN1CC(=O)N(CN2CCN(c3ccccc3)CC2)C(=O)C1)N1CC(=O)N(CN2CCN(c3ccccc3)CC2)C(=O)C1` (centres undefined), 94 to 101 °C. For `CCN(CCCOc1ccc(C(=O)O)cc1)c1ccc(Cl)cc1`, the melting point fell in the range of 146 to 149 °C.

In turn, `CS(=O)(=O)N1CCC(CO)CC1` returned a melting point of 96 to 97 °C. As for `C=CCCCCc1ccc(C(=O)O)cc1`, the figure is 79 to 82 °C; as for `CCN1CCCC1CNS(=O)(=O)c1ccc(Nc2ccnc3cc(C(F)(F)F)ccc23)cc1` (centres undefined), 194 to 195 °C. The same measure for `CN1C(=O)CC2(c3ccccc3)CCCC3OC32C1=O` (centres undefined): 135 to 140 °C; for `O=c1c2c(c1=O)N(CCCP(=O)(O)O)CCCN2`: 244 to 248 °C; for `O=C(O)C(c1ccccc1)N1CC(N2C(=O)c3ccccc3C2=O)C1=O` (centres undefined): 176 to 183 °C. The same measure for `COc1ccc(CCN(C)CCCOc2ccc(NC(=O)c3cccc4c(=O)c5ccccc5[nH]c34)cc2)cc1OC`: 140 °C. Turning to `Cc1ccc2[nH]c3c(c2c1)CCNC3(C(=O)OC(C)(C)C)C1(NC(=O)OCc2ccccc2)CCC1` (centres undefined), the melting point lay in the range of 219 to 220 °C. As for `CCOc1cc2ncc(C#N)c(Nc3ccc(F)cc3C)c2cc1OCC`, the figure is 105 to 108 °C; as for `CCCCCCCCCCCCCCCCNC(=O)OCC(CO)OC` (centres undefined), 47.5 to 48 °C; as for `CCCCCCCCCCOC(=O)c1nc(-c2ccc(Cl)cc2)c(F)c(N)c1Cl`, 62 to 63 °C. `COC(=O)C(C)(C)OCc1cc2nc(Cl)ccc2n1S(=O)(=O)c1ccc(C(C)C)cc1` came in with a melting point of 120 °C. The same measure for `O=C(O)c1[nH]c2cc(Cl)cc(Cl)c2c1C=C1NC(=O)N(c2ccccc2)C1=O`: over 250 °C; for `C#Cc1cccc(-c2nccc3nc(N)nn23)c1`: 170 to 172 °C. The same measure for `O=CNNc1ccc(NC(=S)Nc2ccccc2)cc1`: 188 °C; for `CCOC(=O)c1cnc(N(C)Cc2cc3nc(-c4cccc(OCCO)c4)nc(N4CCOCC4)c3s2)nc1`: 216 to 220 °C; for `CCOC(=O)Nc1nc(-c2ccccc2)c(-c2nc3ccccc3c(=O)n2-c2ccccc2Cl)s1`: 236 to 238 °C. The same measure for `CCN(CC1CCCC1)c1nc2ccccc2cc1CN(Cc1cc(C(F)(F)F)cc(C(F)(F)F)c1)C(N)=S`: 98 °C. Compound `Cn1nc(-c2c(F)cccc2Cl)nc1-c1ccc(CO)c(Cl)c1` displayed a melting point of 111 to 113 °C. As for `Cc1ccccc1-c1cc(N2CCOCC2)ncc1N(C)C(=O)C(C)(C)c1cc(C(F)(F)F)cc(C(F)(F)F)c1`, the melting point was 129 to 130 °C. Take `CCOC(=O)C1=C(N)Nc2ncnc(OC(C)C)c2C1c1ccccc1OC` (centres undefined): the melting point is 222 to 223 °C. Consider `Cc1ccc2c(Br)csc2c1`, for which the melting point was 51 to 53 °C. `CS(=O)(=S)OCCCCC(=O)O` (centres undefined) yielded a melting point of 61 to 62.5 °C.

Turning to `COc1ccc2nc(C)n(-c3ccccc3)c2n1`, the melting point was 114 to 116 °C. On to `NC(=O)c1nnn(Cc2ccccc2Cl)c1N`, for which the melting point was in the range of 206 to 208 °C.

On to `CC[C@H](C)C(=O)O[C@H]1C[C@@H](C)C=C2C=C[C@H](C)[C@H](CCC(=O)C[C@@H](O)CC(=O)O)[C@H]21`, for which the melting point was 102 to 103 °C.

The compound `CC(C)OC(=O)NS(=O)(=O)Cl` gave a melting point of 66 °C. As for `O=C(O)C(=NO)c1cccs1`, the figure is 132 °C. As for `Cc1ccccc1NC(=O)CN1C[C@@H](C)N(S(=O)(=O)c2cccc(N)c2)[C@@H](C)C1`, the figure is 202 to 203 °C; as for `CC(C)(C)COc1cccc(C[C@H](N)[C@H](O)c2cccc(Cl)c2)c1` (racemic), 115 to 116 °C.

For `COC(=O)c1ccc(OCCc2c[nH]cn2)cc1`, the melting point was in the range of 116 to 118 °C.

In turn, `CCc1nc2c(-c3ccc(Cl)cc3Cl)nnc(C)c2n1C(CC)CC` gave a melting point of 63 to 64 °C. As for `O=c1c2cc(I)ccc2nc(Cl)n1-c1ccc(Cl)cc1`, the melting point fell in the range of 178 to 180 °C. Take `CCOc1cc(C(C)C)c2c(c1)S(=O)(=O)N(COC(=O)c1c(Cl)cccc1Cl)C2=O`: the melting point is 140 to 141 °C. Consider `O=c1ccc2c(-c3ccncc3)nccc2[nH]1`, for which the melting point is over 300 °C. With `CCSc1nsc(NC(=O)N(C)C)c1C#N`, the melting point turned out to be 198 °C. The same measure for `Cc1cc(C(C)(CC(=O)c2ccccc2)c2ccccc2)ccc1O` (centres undefined): 137 °C; for `BrCc1cccc2cccc(CBr)c12`: 131 to 132 °C; for `CN1Cc2c(-c3nc(C4CC4)no3)ncn2-c2ccccc2C1=O`: 202 to 203 °C.

`Cc1ccc(C(F)(F)C(F)(F)c2ccc(Br)cc2)cc1` displayed a melting point of 104 to 106 °C. The same measure for `Cc1ccc(C(=O)N(C(C)C)C(C)C)c(C(=O)O)c1F`: 147 to 149 °C; for `CN(c1cc2c3c(c1)CCCC3(C)CCC2)c1ncc(C(=O)O)cn1`: over 300 °C. Compound `ON(Cc1ccccc1)Cc1ccc(CN(O)Cc2ccccc2)cc1` had a melting point of 160 to 163 °C. Take `CCOC(=O)CCc1nnc(-c2ccc3c(c2)CCO3)o1`: the melting point lay in the range of 81 to 82 °C.

Turning to `COc1ccc(-c2nc(Sc3ccc(C(F)(F)F)cc3[N+](=O)[O-])[nH]c2-c2ccc(OC)cc2)cc1`, the melting point is 264 to 266 °C.

In turn, `O=C(c1ccccc1F)c1cc2c(c(Cl)c1Cl)OC(CO)C2` (centres undefined) displayed a melting point of 148 to 150 °C. As for `CCCCNC(=O)[C@@H]1CCCN1C(=O)OCc1ccccc1`, the figure is 88 to 90 °C; as for `COc1cc2c(c(-c3cc(Cl)ccc3Cl)c1)OC(CN)C2` (centres undefined), 140 to 142 °C. The same measure for `NC(=O)N(O)[C@H]1CC[C@@H](Sc2ccccc2)C1` (relative stereo): 146 to 148 °C; for `CC(C)N(C1CCCCC1)S(=O)(=O)N[C@@H](Cc1ccc(Oc2nccc3cnccc23)cc1)C(=O)O`: 138 °C. The same measure for `O=C1CCC(N2C(=O)c3cccc(CNC(=O)c4ccc(C(F)(F)F)c(F)c4)c3C2=O)C(=O)N1` (centres undefined): 165 to 167 °C; for `COc1ccc(C(=O)c2ccc(OCc3nc(-c4ccccc4)oc3C)cc2)c(OCCC(=O)O)c1`: 142 to 143 °C; for `O=C1CCC(N2C(=O)c3cccc(CNC(=O)c4ccccc4)c3C2=O)C(=O)N1` (centres undefined): 227 to 229 °C.

With `CSC1Cc2cc(Cl)ccc2C1=O` (centres undefined), the melting point came out at 90 °C. The compound `O=c1c(Cl)c(S(=O)C2CCCCC2)cnn1-c1ccccc1` (centres undefined) displayed a melting point of 128 to 130 °C. As to `O=C(O)c1cn(-n2cnnc2)c2nc(Cl)c(F)cc2c1=O`, the melting point turned out to be 230 °C. The same measure for `N#Cc1ccc(Nc2ncc(Cl)c(O)n2)cc1`: over 300 °C; for `CN(Cc1ccc(NC(=O)C2=Cc3cc(-c4cccc(Cl)c4)ccc3S(=O)(=O)CC2)cc1)C1CCOCC1`: 221 to 224 °C; for `COc1cc(OC)c2c(=O)[nH]c(-c3ccc(OCCN4CCCC4)c(C)c3)nc2c1`: 230 to 231 °C. As for `CN(C)Cc1nnc2n1-c1ccc([N+](=O)[O-])cc1C(c1ccccc1)=[N+]([O-])C2`, the figure is 228 to 230 °C. Turning to `COc1ccc2oc(C(C)N(O)C(N)=O)cc2c1` (centres undefined), the melting point was in the range of 149 to 151 °C.

On to `COc1cc2c(c(C(C)(C)C)c1)OC(=O)C2=C1C(=O)Nc2c(Br)cc(Br)cc21`, for which the melting point was 303 to 314 °C. The same measure for `CC(=O)CC(=O)Nc1ccc(SC(F)(F)F)cc1`: 120 to 122 °C; for `COc1cc(NC2=NCC(c3ccccc3)O2)ccc1-c1cnco1` (centres undefined): 130 to 132 °C.

`Cc1ccc(N(C)C(=O)Cc2ccccc2)s1` registered a melting point of 77 to 79 °C. In turn, `COc1ccc(-n2nc(C(C)(C)C)cc2NC(=O)c2nccc3cc(Oc4cc(NC(C)=O)ncn4)ccc23)cc1` showed a melting point of 156 °C. `NC(C(=O)O)c1ccc(C(=O)O)cc1SCCc1ccccc1` (centres undefined) showed a melting point of 227 to 231 °C.

`O=c1oc2ccc(-c3ccc(F)cc3F)cc2c(=O)n1-c1ccc(F)c(F)c1` yielded a melting point of 193 to 194 °C. As for `O=C(O)C(=O)c1ccc(OCCCCc2ccncc2)cc1`, the figure is 198 to 199 °C; as for `O=C(Cc1c[nH]c2ccccc12)OCc1ccccc1`, 71 to 72 °C; as for `COc1ccc(N2CCN(c3cccc(C)c3)CC2)nn1`, 137 °C.
